Source: publication PMC6658524, “Lysosomal degradation of newly formed insulin granules contributes to β cell failure in diabetes” (Nature Communications, 2019)
pIC50: −log10 of the molar value.

How the values were obtained:
p70S6K = molecular target: T1, p70S6K (Homo sapiens, UniProt P23443); test: 60-kinase selectivity panel, % inhibition at […]; assay type: biochemical
T1 construct: gene RPS6KB1

p38γ (SAPK3) = molecular target: T2, p38γ (SAPK3) (Homo sapiens, UniProt P53778); test: biochemical; parameters: Kinase inhibition by mobility shift assay (Caliper)
T2 construct: gene MAPK12

AMPKα2(h) = molecular target: T3, AMPKα2(h) (Homo sapiens, UniProt P54646); test: biochemical; parameters: Eurofins KinaseProfiler panel of 60 kinases, per cent inhibition
T3 construct: gene PRKAA2
Source text: (§1) A more detailed account of the discovery, chemistry and biochemical properties of this novel class of selective p38δ inhibitors will be given elsewhere.

BrSK2(h) = BrSK2(h) (Homo sapiens, UniProt Q8IWQ3); test: biochemical; parameters: Eurofins KinaseProfiler panel of 60 kinases, per cent inhibition
Source text: as §1

CDK1/cyclinB(h) = CDK1/cyclinB(h) (Homo sapiens, UniProt P06493); test: biochemical; parameters: Eurofins KinaseProfiler panel of 60 kinases, per cent inhibition
Source text: as §1

CLK2(h) = CLK2(h) (Homo sapiens, UniProt P49760); test: biochemical; parameters: Eurofins KinaseProfiler panel of 60 kinases, per cent inhibition
Source text: as §1

CaMKI(h) = molecular target: T4, CaMKI(h) (Homo sapiens, UniProt Q14012); test: biochemical; parameters: Eurofins KinaseProfiler panel of 60 kinases, per cent inhibition
T4 construct: gene CAMK1
Source text: as §1

EphA1(h) = EphA1(h) (Homo sapiens, UniProt P21709); test: biochemical; parameters: Eurofins KinaseProfiler panel of 60 kinases, per cent inhibition
Source text: as §1

FGFR1(h) = FGFR1(h) (Homo sapiens, UniProt P11362); test: biochemical; parameters: Eurofins KinaseProfiler panel of 60 kinases, per cent inhibition
Source text: as §1

GSK3β(h) = molecular target: T5, GSK3β(h) (Homo sapiens, UniProt P49841); test: biochemical; parameters: Eurofins KinaseProfiler panel of 60 kinases, per cent inhibition
T5 construct: gene GSK3B
Source text: as §1

JAK3(h) = JAK3(h) (Homo sapiens, UniProt P52333); test: biochemical; parameters: Eurofins KinaseProfiler panel of 60 kinases, per cent inhibition
Source text: as §1

KDR(h) = KDR(h) (Homo sapiens, UniProt P35968); test: biochemical; parameters: Eurofins KinaseProfiler panel of 60 kinases, per cent inhibition
Source text: as §1

MAPK1(h) = molecular target: T6, MAPK1(h) (Homo sapiens, UniProt P27361); test: biochemical; parameters: Eurofins KinaseProfiler panel of 60 kinases, per cent inhibition
T6 construct: gene MAPK3
Source text: as §1

MELK(h) = MELK(h) (Homo sapiens, UniProt Q14680); test: biochemical; parameters: Eurofins KinaseProfiler panel of 60 kinases, per cent inhibition
Source text: as §1

PAK4(h) = PAK4(h) (Homo sapiens, UniProt O96013); test: biochemical; parameters: Eurofins KinaseProfiler panel of 60 kinases, per cent inhibition
Source text: as §1

PDGFRα(h) = molecular target: T7, PDGFRα(h) (Homo sapiens, UniProt P16234); test: biochemical; parameters: Eurofins KinaseProfiler panel of 60 kinases, per cent inhibition
T7 construct: gene PDGFRA
Source text: as §1

PEK(h) = molecular target: T8, PEK(h) (Homo sapiens, UniProt Q9NZJ5); test: biochemical; parameters: Eurofins KinaseProfiler panel of 60 kinases, per cent inhibition
T8 construct: gene EIF2AK3
Source text: as §1

PKCβII(h) = molecular target: T9, PKCβII(h) (Homo sapiens, UniProt P05771); test: biochemical; parameters: Eurofins KinaseProfiler panel of 60 kinases, per cent inhibition
T9 construct: gene PRKCB; isoform beta II
Source text: as §1

PKCζ(h) = molecular target: T10, PKCζ(h) (Homo sapiens, UniProt Q05513); test: biochemical; parameters: Eurofins KinaseProfiler panel of 60 kinases, per cent inhibition
T10 construct: gene PRKCZ
Source text: as §1

Plk1(h) = Plk1(h) (Homo sapiens, UniProt P53350); test: biochemical; parameters: Eurofins KinaseProfiler panel of 60 kinases, per cent inhibition
Source text: as §1

Ron(h) = molecular target: T11, Ron(h) (Homo sapiens, UniProt Q04912); test: biochemical; parameters: Eurofins KinaseProfiler panel of 60 kinases, per cent inhibition
T11 construct: gene MST1R
Source text: as §1

Rsk1(h) = molecular target: T12, Rsk1(h) (Homo sapiens, UniProt Q15418); test: biochemical; parameters: Eurofins KinaseProfiler panel of 60 kinases, per cent inhibition
T12 construct: gene RPS6KA1
Source text: as §1

SAPK2a(h) = molecular target: T13, SAPK2a(h) (Homo sapiens, UniProt Q16539); test: biochemical; parameters: Eurofins KinaseProfiler panel of 60 kinases, per cent inhibition
T13 construct: gene MAPK14
Source text: as §1

TrkA(h) = molecular target: T14, TrkA(h) (Homo sapiens, UniProt P04629); test: biochemical; parameters: Eurofins KinaseProfiler panel of 60 kinases, per cent inhibition
T14 construct: gene NTRK1
Source text: as §1

T8 sequence (Q9NZJ5 whole entry): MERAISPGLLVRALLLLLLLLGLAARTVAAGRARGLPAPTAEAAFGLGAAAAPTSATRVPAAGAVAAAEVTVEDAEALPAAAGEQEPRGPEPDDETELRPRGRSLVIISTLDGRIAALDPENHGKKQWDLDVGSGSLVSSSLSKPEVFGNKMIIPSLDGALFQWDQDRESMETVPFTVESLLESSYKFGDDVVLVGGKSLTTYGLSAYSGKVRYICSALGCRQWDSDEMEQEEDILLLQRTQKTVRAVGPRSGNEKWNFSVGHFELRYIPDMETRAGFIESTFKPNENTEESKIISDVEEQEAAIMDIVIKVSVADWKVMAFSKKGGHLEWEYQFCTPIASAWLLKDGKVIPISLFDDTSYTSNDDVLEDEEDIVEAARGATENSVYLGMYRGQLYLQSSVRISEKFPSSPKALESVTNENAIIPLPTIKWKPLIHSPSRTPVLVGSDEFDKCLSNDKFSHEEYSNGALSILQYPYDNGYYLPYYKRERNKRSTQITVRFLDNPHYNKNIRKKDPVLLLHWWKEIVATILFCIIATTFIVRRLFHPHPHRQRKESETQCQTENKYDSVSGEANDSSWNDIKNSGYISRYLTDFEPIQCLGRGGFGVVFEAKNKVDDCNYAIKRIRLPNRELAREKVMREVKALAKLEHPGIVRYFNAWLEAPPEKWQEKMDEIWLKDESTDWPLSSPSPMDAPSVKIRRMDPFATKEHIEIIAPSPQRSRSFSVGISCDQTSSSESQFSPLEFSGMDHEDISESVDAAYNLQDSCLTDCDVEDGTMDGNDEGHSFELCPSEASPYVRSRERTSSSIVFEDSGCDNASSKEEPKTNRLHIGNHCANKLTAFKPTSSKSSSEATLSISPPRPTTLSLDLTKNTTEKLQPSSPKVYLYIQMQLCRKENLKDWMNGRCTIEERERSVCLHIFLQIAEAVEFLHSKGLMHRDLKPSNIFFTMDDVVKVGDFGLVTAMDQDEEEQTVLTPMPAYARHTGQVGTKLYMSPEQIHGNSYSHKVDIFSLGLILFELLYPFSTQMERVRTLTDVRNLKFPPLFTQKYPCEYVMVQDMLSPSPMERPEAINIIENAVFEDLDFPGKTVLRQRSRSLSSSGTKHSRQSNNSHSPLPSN
Chain of EphA1(h) (P21709 whole entry): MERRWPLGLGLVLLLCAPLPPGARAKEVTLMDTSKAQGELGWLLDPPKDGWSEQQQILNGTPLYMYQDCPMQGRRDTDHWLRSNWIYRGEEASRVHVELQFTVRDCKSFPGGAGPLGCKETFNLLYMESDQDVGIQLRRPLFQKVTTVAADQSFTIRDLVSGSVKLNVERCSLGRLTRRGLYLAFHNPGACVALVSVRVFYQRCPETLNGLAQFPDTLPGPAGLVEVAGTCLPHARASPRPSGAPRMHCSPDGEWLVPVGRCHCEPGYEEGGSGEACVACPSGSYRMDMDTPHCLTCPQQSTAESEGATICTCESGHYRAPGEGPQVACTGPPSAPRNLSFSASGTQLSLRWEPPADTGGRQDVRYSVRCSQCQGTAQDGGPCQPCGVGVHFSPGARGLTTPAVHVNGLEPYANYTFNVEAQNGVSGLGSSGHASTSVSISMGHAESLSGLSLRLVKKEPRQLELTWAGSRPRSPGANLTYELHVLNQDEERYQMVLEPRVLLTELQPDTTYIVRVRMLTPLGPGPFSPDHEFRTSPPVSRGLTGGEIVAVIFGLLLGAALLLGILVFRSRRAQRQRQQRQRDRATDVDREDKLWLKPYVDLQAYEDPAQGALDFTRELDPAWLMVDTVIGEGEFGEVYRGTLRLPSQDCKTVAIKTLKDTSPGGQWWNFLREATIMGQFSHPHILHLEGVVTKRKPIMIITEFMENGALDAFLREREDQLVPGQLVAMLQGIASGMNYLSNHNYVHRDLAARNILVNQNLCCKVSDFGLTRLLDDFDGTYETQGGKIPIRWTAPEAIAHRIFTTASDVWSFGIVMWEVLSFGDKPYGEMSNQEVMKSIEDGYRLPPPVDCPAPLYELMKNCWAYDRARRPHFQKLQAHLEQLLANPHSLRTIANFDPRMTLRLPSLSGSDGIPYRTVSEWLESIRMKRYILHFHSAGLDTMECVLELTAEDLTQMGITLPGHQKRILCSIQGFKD
T7 sequence (P16234 whole entry): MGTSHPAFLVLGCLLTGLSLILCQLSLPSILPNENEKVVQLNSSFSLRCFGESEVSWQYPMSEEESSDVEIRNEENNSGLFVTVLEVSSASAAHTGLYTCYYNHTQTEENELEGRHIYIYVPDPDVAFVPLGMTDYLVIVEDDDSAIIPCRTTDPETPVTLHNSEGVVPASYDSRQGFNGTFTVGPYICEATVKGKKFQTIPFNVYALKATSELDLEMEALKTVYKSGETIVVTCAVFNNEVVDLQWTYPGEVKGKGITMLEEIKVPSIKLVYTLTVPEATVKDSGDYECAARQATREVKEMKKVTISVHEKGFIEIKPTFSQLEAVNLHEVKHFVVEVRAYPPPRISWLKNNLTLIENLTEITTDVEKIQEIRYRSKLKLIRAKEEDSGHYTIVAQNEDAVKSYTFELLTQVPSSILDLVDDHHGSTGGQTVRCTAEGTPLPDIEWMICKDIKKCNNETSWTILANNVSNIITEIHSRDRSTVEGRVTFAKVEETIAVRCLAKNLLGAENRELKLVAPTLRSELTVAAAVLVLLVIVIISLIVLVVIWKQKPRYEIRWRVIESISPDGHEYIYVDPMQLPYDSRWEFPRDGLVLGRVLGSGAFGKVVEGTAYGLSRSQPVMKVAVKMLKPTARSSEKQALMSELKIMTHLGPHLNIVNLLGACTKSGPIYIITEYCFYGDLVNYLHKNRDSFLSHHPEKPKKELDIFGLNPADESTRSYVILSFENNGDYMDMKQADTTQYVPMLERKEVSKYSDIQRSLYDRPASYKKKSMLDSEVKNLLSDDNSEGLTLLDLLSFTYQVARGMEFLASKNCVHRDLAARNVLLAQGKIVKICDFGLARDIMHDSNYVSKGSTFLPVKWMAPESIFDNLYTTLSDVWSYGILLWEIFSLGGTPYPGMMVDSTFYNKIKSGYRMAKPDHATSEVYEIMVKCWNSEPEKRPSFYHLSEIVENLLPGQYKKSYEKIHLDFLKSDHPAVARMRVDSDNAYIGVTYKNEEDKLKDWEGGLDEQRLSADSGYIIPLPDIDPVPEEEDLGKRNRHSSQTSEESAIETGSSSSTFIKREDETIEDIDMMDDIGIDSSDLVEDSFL
Chain of PAK4(h) (O96013 whole entry): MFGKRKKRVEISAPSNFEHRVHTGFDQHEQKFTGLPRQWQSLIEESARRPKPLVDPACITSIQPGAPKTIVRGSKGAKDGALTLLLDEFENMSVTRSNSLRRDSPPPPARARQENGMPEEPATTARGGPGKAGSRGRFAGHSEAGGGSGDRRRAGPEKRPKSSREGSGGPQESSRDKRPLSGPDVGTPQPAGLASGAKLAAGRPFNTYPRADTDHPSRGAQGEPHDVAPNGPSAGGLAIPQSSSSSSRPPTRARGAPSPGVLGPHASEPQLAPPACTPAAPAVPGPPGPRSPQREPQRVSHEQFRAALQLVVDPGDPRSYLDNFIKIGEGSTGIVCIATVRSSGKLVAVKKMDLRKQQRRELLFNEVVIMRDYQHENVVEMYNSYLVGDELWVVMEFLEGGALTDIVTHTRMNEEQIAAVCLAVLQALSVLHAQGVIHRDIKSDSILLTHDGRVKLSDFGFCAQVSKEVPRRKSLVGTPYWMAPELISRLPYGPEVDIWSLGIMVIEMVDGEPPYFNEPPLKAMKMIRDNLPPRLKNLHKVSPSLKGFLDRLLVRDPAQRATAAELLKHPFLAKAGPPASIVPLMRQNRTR
Chain of MELK(h) (Q14680 whole entry): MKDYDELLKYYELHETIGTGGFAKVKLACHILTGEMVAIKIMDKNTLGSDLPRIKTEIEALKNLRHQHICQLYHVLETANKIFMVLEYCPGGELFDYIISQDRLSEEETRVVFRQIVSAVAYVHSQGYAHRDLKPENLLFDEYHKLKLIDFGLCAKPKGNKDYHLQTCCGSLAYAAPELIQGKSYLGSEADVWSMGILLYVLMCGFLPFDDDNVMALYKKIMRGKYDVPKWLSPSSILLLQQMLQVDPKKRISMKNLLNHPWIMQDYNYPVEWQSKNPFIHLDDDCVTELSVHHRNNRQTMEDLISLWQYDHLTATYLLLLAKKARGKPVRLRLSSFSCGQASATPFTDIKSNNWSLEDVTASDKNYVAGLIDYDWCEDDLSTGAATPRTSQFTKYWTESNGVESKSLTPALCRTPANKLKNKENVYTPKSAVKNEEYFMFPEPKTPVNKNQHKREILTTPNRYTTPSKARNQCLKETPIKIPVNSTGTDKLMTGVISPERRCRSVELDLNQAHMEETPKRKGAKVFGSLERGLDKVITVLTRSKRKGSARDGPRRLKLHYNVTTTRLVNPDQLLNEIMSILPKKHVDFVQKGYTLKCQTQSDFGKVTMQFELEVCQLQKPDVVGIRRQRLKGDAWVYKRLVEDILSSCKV
T4 sequence (Q14012 whole entry): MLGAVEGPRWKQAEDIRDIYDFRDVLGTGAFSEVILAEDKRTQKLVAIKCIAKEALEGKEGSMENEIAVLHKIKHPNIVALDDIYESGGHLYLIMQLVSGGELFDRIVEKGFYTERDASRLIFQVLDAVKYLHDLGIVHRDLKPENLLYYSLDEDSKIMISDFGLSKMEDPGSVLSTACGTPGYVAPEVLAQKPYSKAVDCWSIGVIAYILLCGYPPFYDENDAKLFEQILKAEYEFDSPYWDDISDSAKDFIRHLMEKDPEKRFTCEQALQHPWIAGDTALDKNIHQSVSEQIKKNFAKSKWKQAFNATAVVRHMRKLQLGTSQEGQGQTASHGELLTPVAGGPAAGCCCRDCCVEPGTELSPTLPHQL

**Q.** How did the “% inhibition at 10 μM” value (p70S6K) turn out when CCN1CCOc2nc(N3CCOCC3)nc(-c3ccc(NC(=O)OC)cc3)c2C1=O [Compound A] was run?
**A.** The value was 59.

**Q.** What about the pIC50 (p38γ (SAPK3)) of the same molecule?
**A.** The pIC50 was 6.15.

**Q.** What about the inhibition at 1 µM (AMPKα2(h)) of the same molecule?
**A.** Its inhibition at 1 µM is -5%.

**Q.** And the inhibition at 10 µM (AMPKα2(h))?
**A.** The inhibition at 10 µM was 5%.

**Q.** What about the inhibition at 1 µM (BrSK2(h)) of the same molecule?
**A.** The inhibition at 1 µM was 5%.

**Q.** What about the inhibition at 10 µM (BrSK2(h)) of the same molecule?
**A.** Its inhibition at 10 µM is 5%.

**Q.** And the inhibition at 1 µM (CDK1/cyclinB(h))?
**A.** The inhibition at 1 µM was -5%.

**Q.** And the inhibition at 10 µM (CDK1/cyclinB(h))?
**A.** The inhibition at 10 µM was 4%.

**Q.** What about the inhibition at 1 µM (CLK2(h)) of the same molecule?
**A.** The inhibition at 1 µM was -2%.

**Q.** And the inhibition at 10 µM (CLK2(h))?
**A.** Its inhibition at 10 µM is -2%.

**Q.** And the inhibition at 1 µM (CaMKI(h))?
**A.** The inhibition at 1 µM was 5%.

**Q.** What about the inhibition at 10 µM (CaMKI(h)) of the same molecule?
**A.** The inhibition at 10 µM was 11%.

**Q.** What about the inhibition at 1 µM (EphA1(h)) of the same molecule?
**A.** The inhibition at 1 µM was 0%.

**Q.** And the inhibition at 10 µM (EphA1(h))?
**A.** Its inhibition at 10 µM is 7%.

**Q.** What about the inhibition at 1 µM (FGFR1(h)) of the same molecule?
**A.** Its inhibition at 1 µM is 9%.

**Q.** What about the inhibition at 10 µM (FGFR1(h)) of the same molecule?
**A.** Its inhibition at 10 µM is 6%.

**Q.** What about the inhibition at 1 µM (GSK3β(h)) of the same molecule?
**A.** The inhibition at 1 µM was 1%.

**Q.** And the inhibition at 10 µM (GSK3β(h))?
**A.** The inhibition at 10 µM was 12%.

**Q.** And the inhibition at 1 µM (JAK3(h))?
**A.** Its inhibition at 1 µM is 0%.

**Q.** And the inhibition at 10 µM (JAK3(h))?
**A.** Its inhibition at 10 µM is -5%.

**Q.** And the inhibition at 1 µM (KDR(h))?
**A.** The inhibition at 1 µM was -16%.

**Q.** And the inhibition at 10 µM (KDR(h))?
**A.** The inhibition at 10 µM was -12%.

**Q.** And the inhibition at 1 µM (MAPK1(h))?
**A.** The inhibition at 1 µM was 0%.

**Q.** And the inhibition at 10 µM (MAPK1(h))?
**A.** Its inhibition at 10 µM is 5%.

**Q.** What about the inhibition at 1 µM (MELK(h)) of the same molecule?
**A.** Its inhibition at 1 µM is 2%.

**Q.** And the inhibition at 10 µM (MELK(h))?
**A.** The inhibition at 10 µM was 9%.

**Q.** And the inhibition at 1 µM (PAK4(h))?
**A.** The inhibition at 1 µM was -2%.

**Q.** What about the inhibition at 10 µM (PAK4(h)) of the same molecule?
**A.** Its inhibition at 10 µM is 4%.

**Q.** What about the inhibition at 1 µM (PDGFRα(h)) of the same molecule?
**A.** Its inhibition at 1 µM is 1%.

**Q.** What about the inhibition at 10 µM (PDGFRα(h)) of the same molecule?
**A.** Its inhibition at 10 µM is 0%.

**Q.** And the inhibition at 1 µM (PEK(h))?
**A.** The inhibition at 1 µM was -12%.

**Q.** What about the inhibition at 10 µM (PEK(h)) of the same molecule?
**A.** The inhibition at 10 µM was -11%.

**Q.** What about the inhibition at 1 µM (PKCβII(h)) of the same molecule?
**A.** The inhibition at 1 µM was 0%.

**Q.** What about the inhibition at 10 µM (PKCβII(h)) of the same molecule?
**A.** The inhibition at 10 µM was 1%.

**Q.** What about the inhibition at 1 µM (PKCζ(h)) of the same molecule?
**A.** Its inhibition at 1 µM is 0%.

**Q.** And the inhibition at 10 µM (PKCζ(h))?
**A.** Its inhibition at 10 µM is 10%.

**Q.** What about the inhibition at 1 µM (Plk1(h)) of the same molecule?
**A.** The inhibition at 1 µM was 2%.

**Q.** And the inhibition at 10 µM (Plk1(h))?
**A.** Its inhibition at 10 µM is 11%.

**Q.** What about the inhibition at 1 µM (Ron(h)) of the same molecule?
**A.** Its inhibition at 1 µM is 10%.

**Q.** And the inhibition at 10 µM (Ron(h))?
**A.** Its inhibition at 10 µM is 9%.

**Q.** What about the inhibition at 1 µM (Rsk1(h)) of the same molecule?
**A.** Its inhibition at 1 µM is -11%.

**Q.** And the inhibition at 10 µM (Rsk1(h))?
**A.** The inhibition at 10 µM was 5%.

**Q.** And the inhibition at 1 µM (SAPK2a(h))?
**A.** The inhibition at 1 µM was -16%.

**Q.** And the inhibition at 10 µM (SAPK2a(h))?
**A.** Its inhibition at 10 µM is 9%.

**Q.** What about the inhibition at 1 µM (TrkA(h)) of the same molecule?
**A.** Its inhibition at 1 µM is -21%.

**Q.** What about the inhibition at 10 µM (TrkA(h)) of the same molecule?
**A.** The inhibition at 10 µM was 5%.
